Data reported in PubChem BioAssay (NCI).
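A five-concentration, 48-hour dose response in 96-well plates underlies each endpoint, interpolated linearly between surrounding concentrations. GI50 marks 50% less growth. At the TGI there is no net growth.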

Experiments:
Assay in all cases: NCI anticancer screen, dose series, 48 h
[1] = tested on: HOP-62 NSCLC
[2] = tested on: OVCAR-5 ovarian
[3] = tested on: SN12C renal
[4] = tested on: NCI-H226 lung
[5] = tested on: DU-145 prostate
[6] = tested on: HOP-92 NSCLC
[7] = tested on: OVCAR-4 ovarian
[8] = tested on: M14 melanoma
[9] = tested on: SR leukemia
[10] = tested on: SK-MEL-2 melanoma

SMILES | GI50 [1] [µM] | TGI [1] [µM] | GI50 [2] [µM] | TGI [2] [µM] | GI50 [3] [µM] | TGI [3] [µM] | GI50 [4] [µM] | TGI [4] [µM] | GI50 [5] [µM] | TGI [5] [µM] | GI50 [6] [µM] | TGI [6] [µM] | GI50 [7] [µM] | TGI [7] [µM] | GI50 [8] [µM] | TGI [8] [µM] | GI50 [9] [µM] | TGI [9] [µM] | GI50 [10] [µM] | TGI [10] [µM]
O=C(CCCCCCSc1nc(-c2ccccc2)cc(-c2ccccc2)n1)NO | 1.93 | 8.06 | 1.84 | 7.92 | 2.9 | 10.5 | 2.94 | 13.2 | 2.44 | 10.6 | 1.75 | 4.95 | 3.05 | 16.7 | 1.58 | 5.94 | 0.322 | 3.87 | 3.94 | 21
Cc1nc2sc(C(=O)Nc3cccc4ccccc34)c(N)c2cc1C(=O)/C=C/c1ccccc1 | 0.311 | 2.71 | 0.813 | 2.61 | 0.415 | 1.88 | 0.389 | 1.56 | 0.822 | 3.6 | 0.37 | 8.97 | 1.02 | > 15.7 | 0.181 | 1.68 | 0.164 | > 10.1 | 0.501 | > 39
COc1ccc2c(c1)c(-c1nc(-c3c[nH]c4ncccc34)cs1)cn2CCCCN1CCOCC1 | 1.91 | 4.08 | 1.99 | 4.02 | 1.91 | 4.19 | 2.46 | 9.91 | 3.07 | 9.76 | 1.67 | 4.17 | 2.21 | 5.53 | 1.81 | 3.62 | 2.01 | 4.65 | 1.97 | 3.83
Cc1nc2cnc3cc(F)c(-c4ccc(Oc5ncccn5)cc4Cl)cc3c2n1[C@H]1CCN(C(=O)CO)C[C@@H]1F | 0.642 | 49.3 | 0.279 | > 40.1 | 1.2 | 36.8 | 5.18 | 29.8 | 4.36 | > 100 | 0.403 | 3.5 | 20.8 | > 83.9 | 0.0155 | 0.882 | 13.3 | 54.4 | 0.059 | 0.536
Cn1c(=O)c(Oc2ccc(F)cc2F)cc2cnc(NC(CO)CO)nc21 | > 25 | > 25 | > 25 | > 25 | > 25 | > 25 | > 25 | > 25 | > 25 | > 25 | 14.7 | > 25 | > 25 | > 25 | > 25 | > 25 | > 25 | > 25 | > 25 | > 25
NC1=C(Br)C(=O)c2ncccc2C1=O | – | 1.67 | – | 3.49 | – | 2.1 | – | 3.59 | 0.709 | 2.14 | – | 3.06 | – | 2.49 | – | 2.03 | – | 1.84 | – | 1.49
C[C@]12CC[C@@H]3c4ccc(O)cc4CC[C@H]3[C@@H]1CC[C@@H]2NS(=O)(=O)c1cccc(C(F)(F)F)c1 | 5.18 | 17.9 | 4.54 | 17.4 | 2.19 | 5.97 | 3.88 | 17.2 | 5.83 | 18.4 | 1.94 | 7.81 | 2.95 | 12.4 | 3.88 | 13.9 | 3.98 | 27.2 | 3.7 | 13
c1cc(CCN2CCCCC2)ccn1 | – | > 100 | – | > 100 | – | > 100 | – | > 100 | – | > 100 | – | > 100 | – | > 100 | – | > 100 | – | > 100 | – | > 100
COc1ccc(C/C(C)=C(\c2ccc(OCCN3CCOCC3)cc2)c2ccc(OC(=O)Cc3ccccc3)cc2)cc1 | 0.621 | 1.17 | 0.951 | 10.7 | 0.612 | 1.44 | 0.691 | 2.38 | 1.33 | 20.4 | 0.28 | 0.901 | 1.03 | 10.2 | 0.59 | 1.19 | 0.648 | 1.73 | 0.657 | 1.25
CCc1cccc2c3c(sc12)C(c1ccc(Cl)cc1)C(C#N)=C(N)O3 (stereo not given) | 0.623 | 11.1 | 1.42 | 8.93 | 0.805 | 12.5 | 0.881 | 9.43 | 0.596 | 11.4 | 0.753 | 6.92 | 1.7 | 17.3 | 0.472 | 4.79 | 0.414 | 31.8 | 1.25 | 19.2
COc1ccc(-c2cnnn2-c2cc(OC)c3c(c2)OCO3)cc1 | 0.113 | > 100 | 0.502 | > 100 | 0.658 | > 100 | 5.71 | > 100 | 0.291 | – | 0.187 | 24.8 | 5.9 | > 100 | 0.0537 | > 100 | 0.0466 | > 51.7 | 0.0955 | 90.4
COc1cc2c3c(n(CCCNCC(OC)OC)c(=O)c2cc1OC)-c1cc2c(cc1C3=O)OCO2 | 0.126 | 4.66 | 16.9 | 37.8 | – | – | 6.63 | 42.5 | 0.399 | 13.7 | 1.45 | 19.1 | 20.1 | 42.7 | 0.345 | > 37.2 | < 0.01 | – | > 49.1 | > 73.5
COc1ccc(-c2cc(-c3ccccc3)nc(N3CCN(CCNc4ccnc5cc(Cl)ccc45)CC3)n2)cc1 | 1.97 | 4.04 | 1.92 | 4.99 | 1.64 | 3.34 | 4.14 | 25.1 | 1.88 | 3.94 | 1.14 | 3.35 | 1.87 | 4.05 | – | – | 0.31 | > 100 | 6.78 | 20.8
